The assay deals with human α2δ-1 subunit of Cav2.2 calcium channel (Homo sapiens, UniProt P54289). In words: Binding assay to human α2δ-1 subunit of Cav2.2 calcium channel ([3H]-Gabapentin). Particulars: Table 1, human α2δ-1 enriched membranes, read-out: Ki(nM) alpha2delta Hum. On the procedure:
• Binding assay to human α2δ-1 subunit of Cav2.2 calcium channel.
Human α2δ-1 enriched membranes (2.5 μg) were incubated with 15 nM of radiolabeled [3H]-Gabapentin in assay buffer containing Hepes-KOH 10 mM, pH 7.4.
NSB (non specific binding) was measured by adding 10 μM pregabalin. The binding of the test compound was measured at five different concentrations. After 60 min of incubation at 27° C., the binding reaction was terminated by filtering through Multiscreen GF/C (Millipore) presoaked in 0.5% polyethyleneimine in Vacuum Manifold Station, followed by 3 washes with ice-cold filtration buffer containing 50 mM Tris-HCl, pH 7.4.
Filter plates were dried at 60° C. for 1 h and 30 μl of scintillation cocktail were added to each well before radioactivity reading.
Readings were performed in a Trilux 1450 Microbeta radioactive counter (Perkin Elmer). • Binding assay to human norepinephrine transporter (NET).

Results on 40 molecules are retold here after US20190345146A1, “NITROGEN CONTAINING BICYCLIC DERIVATIVES FOR TREATING PAIN AND PAIN RELATED CONDITIONS” (ESTEVE PHARMACEUTICALS, S.A., priority 2016, published 2019).

Sequence of human α2δ-1 subunit of Cav2.2 calcium channel (P54289 25-1103): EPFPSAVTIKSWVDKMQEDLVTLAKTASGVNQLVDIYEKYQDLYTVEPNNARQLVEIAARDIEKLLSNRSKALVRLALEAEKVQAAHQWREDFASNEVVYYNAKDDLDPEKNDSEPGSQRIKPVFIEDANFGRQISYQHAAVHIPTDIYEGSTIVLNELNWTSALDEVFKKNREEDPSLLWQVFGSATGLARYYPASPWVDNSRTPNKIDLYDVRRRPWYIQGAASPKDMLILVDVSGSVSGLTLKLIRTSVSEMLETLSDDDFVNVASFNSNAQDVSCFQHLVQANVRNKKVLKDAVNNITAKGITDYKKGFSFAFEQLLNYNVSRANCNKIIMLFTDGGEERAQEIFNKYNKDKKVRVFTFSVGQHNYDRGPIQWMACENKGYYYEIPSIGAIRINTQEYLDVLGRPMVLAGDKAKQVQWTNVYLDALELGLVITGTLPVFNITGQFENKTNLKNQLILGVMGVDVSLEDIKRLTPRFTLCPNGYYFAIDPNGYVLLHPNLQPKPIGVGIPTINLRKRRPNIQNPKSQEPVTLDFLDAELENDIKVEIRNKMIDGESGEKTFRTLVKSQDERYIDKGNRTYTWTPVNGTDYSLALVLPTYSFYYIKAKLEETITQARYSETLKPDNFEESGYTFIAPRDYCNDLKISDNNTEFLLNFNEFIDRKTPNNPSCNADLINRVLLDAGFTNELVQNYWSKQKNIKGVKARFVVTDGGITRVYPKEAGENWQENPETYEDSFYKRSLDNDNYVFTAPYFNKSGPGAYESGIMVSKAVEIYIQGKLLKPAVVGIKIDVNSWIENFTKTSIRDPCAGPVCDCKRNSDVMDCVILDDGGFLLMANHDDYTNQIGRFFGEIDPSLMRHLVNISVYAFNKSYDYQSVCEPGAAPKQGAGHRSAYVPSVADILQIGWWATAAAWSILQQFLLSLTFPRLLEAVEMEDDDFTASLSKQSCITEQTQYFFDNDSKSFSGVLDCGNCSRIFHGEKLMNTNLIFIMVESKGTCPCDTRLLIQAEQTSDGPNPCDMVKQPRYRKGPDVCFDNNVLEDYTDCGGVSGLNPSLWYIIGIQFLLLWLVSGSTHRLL

Turning to `CNCCC(OCc1cccc2ccncc12)c1ccccc1` (stereo not shown) [Example 18, 3-(isoquinolin-8-ylmethoxy)-N-methyl-3-phenylpropan-1-amine], the Ki was at least 3000 nM.
The same measure for `CCNCCC(Oc1cccc2c1CCN(C)C2)c1cccs1` (stereo not shown) [Example 27, N-ethyl-3-((2-methyl-1,2,3,4-tetrahydroisoquinolin-5-yl)oxy)-3-(thiophen-2-yl)propan-1-amine]: under 100 nM; for `CNCCC(Oc1cccc2c(=O)n(C)cnc12)c1cccs1` (stereo not shown) [Example 8, 3-methyl-8-(3-(methylamino)-1-(thiophen-2-yl)propoxy)quinazolin-4(3H)-one]: 100 to 500 nM; for `CCNCC[C@H](Oc1cccc2ncncc12)c1cccs1` [Example 38, (S)-N-ethyl-3-(quinazolin-5-yloxy)-3-(thiophen-2-yl)propan-1-amine]: 500 to 3000 nM.
Regarding `CCNCC[C@@H](Oc1cccc2cnncc12)c1cccs1` [Example 14, (R)-N-ethyl-3-(phthalazin-5-yloxy)-3-(thiophen-2-yl)propan-1-amine], the Ki was under 100 nM.
Turning to `CCNCC[C@@H](Oc1cccc2c(=O)n(C)cnc12)c1cccs1` [Example 32, (R)-8-(3-(ethylamino)-1-(thiophen-2-yl)propoxy)-3-methylquinazolin-4(3H)-one], the Ki is 100 to 500 nM.
Turning to `CNCCC(Oc1cccc2c1CCN(C)C2)c1cccs1` (stereo not shown) [Example 2, N-methyl-3-((2-methyl-1,2,3,4-tetrahydroisoquinolin-5-yl)oxy)-3-(thiophen-2-yl)propan-1-amine], the Ki was under 100 nM.
Then `CNCC[C@H](Oc1cccc2c1CCN(C)C2)c1cccs1` [Example 25, (S)—N-methyl-3-((2-methyl-1,2,3,4-tetrahydroisoquinolin-5-yl)oxy)-3-(thiophen-2-yl)propan-1-amine], with 100 to 500 nM.
The same measure for `CNCCC(OCc1cccc2ncccc12)c1cccs1` (stereo not shown) [Example 22, N-methyl-3-(quinolin-5-ylmethoxy)-3-(thiophen-2-yl)propan-1-amine]: at least 3000 nM; for `CNCCC(OCc1cccc2cnccc12)c1cccs1` (stereo not shown) [Example 21, 3-(isoquinolin-5-ylmethoxy)-N-methyl-3-(thiophen-2-yl)propan-1-amine]: at least 3000 nM.
Then `CCNCC[C@@H](Oc1cccc2c(=O)n(C)ccc12)c1ccsc1` [Example 42, (R)-5-(3-(ethylamino)-1-(thiophen-3-yl)propoxy)-2-methylisoquinolin-1(2H)-one], with under 100 nM; and `CNCC[C@H](Oc1cccc2c1CCCN2C)c1cccs1` [Example 23, (S)—N-methyl-3-((1-methyl-1,2,3,4-tetrahydroquinolin-5-yl)oxy)-3-(thiophen-2-yl)propan-1-amine], with 500 to 3000 nM; and `CCNCC[C@@H](Oc1cccc2c(=O)n(C)cnc12)c1ccsc1` [Example 41, (R)-8-(3-(ethylamino)-1-(thiophen-3-yl)propoxy)-3-methylquinazolin-4(3H)-one], with under 100 nM.
For `CNCCC(Oc1cccc2c(=O)n(C)ccc12)c1cccs1` (stereo not shown) [Example 9, 2-methyl-5-(3-(methylamino)-1-(thiophen-2-yl)propoxy)isoquinolin-1(2H)-one], the Ki fell in the range of 100 to 500 nM.
`CCNCC[C@@H](Oc1cccc2cnncc12)c1ccccc1` [Example 13, (R)-N-ethyl-3-phenyl-3-(phthalazin-5-yloxy)propan-1-amine]: the Ki was 500 to 3000 nM.
As for `CNCC[C@H](Oc1cccc2cnncc12)c1cccs1` [Example 5, (S)-N-methyl-3-(phthalazin-5-yloxy)-3-(thiophen-2-yl)propan-1-amine], the Ki was at least 3000 nM.
The same measure for `CNCCC(OCc1cccc2ncccc12)c1ccccc1` (stereo not shown) [Example 19, N-methyl-3-phenyl-3-(quinolin-5-ylmethoxy)propan-1-amine]: at least 3000 nM.
In the case of `CNCC[C@@H](Oc1cccc2ncn(C)c(=O)c12)c1ccsc1` [Example 43, (R)-3-methyl-5-(3-(methylamino)-1-(thiophen-3-yl)propoxyl)quinazolin-4(3H)-one], the Ki is 100 to 500 nM.
Then `CNCC[C@@H](Oc1cccc2cnncc12)c1cccs1` [Example 4, (R)—N-Methyl-3-(phthalazin-5-yloxy)-3-(thiophen-2-yl)propan-1-amine], with 100 to 500 nM; and `CCNCCC(Oc1cccc2cnncc12)c1cccs1` (stereo not shown) [Example 12, N-ethyl-3-(phthalazin-5-yloxy)-3-(thiophen-2-yl)propan-1-amine], with 100 to 500 nM.
The same measure for `CNCCC(Oc1cccc2ncn(C)c(=O)c12)c1cccs1` (stereo not shown) [Example 7, 3-methyl-5-(3-(methylamino)-1-(thiophen-2-yl)propoxy)quinazolin-4(3H)-one]: 100 to 500 nM; for `CNCCC(OCc1cccc2cnccc12)c1ccccc1` (stereo not shown) [Example 17, 3-(Isoquinolin-5-ylmethoxy)-N-methyl-3-phenylpropan-1-amine]: at least 3000 nM.
Regarding `CNCC[C@H](Oc1cccc2ncncc12)c1cccs1` [Example 33, (S)-N-methyl-3-(quinazolin-5-yloxy)-3-(thiophen-2-yl)propan-1-amine], the Ki fell in the range of 100 to 500 nM.
The same measure for `CCNCC[C@H](Oc1cccc2ncn(C)c(=O)c12)c1cccs1` [Example 36, (S)-5-(3-(ethylamino)-1-(thiophen-2-yl)propoxy)-3-methylquinazolin-4(3H)-one]: at least 3000 nM; for `CCNCC[C@@H](Oc1cccc2ncncc12)c1ccsc1` [Example 40, (R)-N-ethyl-3-(quinazolin-5-yloxy)-3-(thiophen-3-yl)propan-1-amine]: under 100 nM; for `CNCC[C@@H](Oc1cccc2c1CCCN2C)c1cccs1` [Example 24, (R)—N-methyl-3-((1-methyl-1,2,3,4-tetrahydroquinolin-5-yl)oxy)-3-(thiophen-2-yl)propan-1-amine]: 100 to 500 nM.
For `CNCC[C@@H](Oc1cccc2c1CCN(C)C2)c1cccs1` [Example 26, (R)—N-methyl-3-((2-methyl-1,2,3,4-tetrahydroisoquinolin-5-yl)oxy)-3-(thiophen-2-yl)propan-1-amine], the Ki was under 100 nM.
Then `CCNCCC(Oc1cccc2cnncc12)c1ccccc1` (stereo not shown) [Example 11, N-ethyl-3-phenyl-3-(phthalazin-5-yloxy)propan-1-amine], with 500 to 3000 nM.
The same measure for `CNCC[C@@H](Oc1cccc2ncncc12)c1cccs1` [Example 37, (R)-N-methyl-3-(quinazolin-5-yloxy)-3-(thiophen-2-yl)propan-1-amine]: under 100 nM.
Then `CCNCC[C@H](Oc1cccc2c(=O)n(C)ccc12)c1cccs1` [Example 35, (S)-5-(3-(ethylamino)-1-(thiophen-2-yl)propoxy)-2-methylisoquinolin-1(2H)-one], with 500 to 3000 nM; and `CNCCC(Oc1cccc2cnncc12)c1cccs1` (stereo not shown) [Example 6, N-methyl-3-(phthalazin-5-yloxy)-3-(thiophen-2-yl)propan-1-amine], with under 100 nM.
As for `CCNCC[C@@H](Oc1cccc2ncncc12)c1cccs1` [Example 39, (R)-N-ethyl-3-(quinazolin-5-yloxy)-3-(thiophen-2-yl)propan-1-amine], the Ki was in the range of 100 to 500 nM.
Take `CCNCC[C@H](Oc1cccc2c(=O)n(C)cnc12)c1cccs1` [Example 34, (S)-8-(3-(ethylamino)-1-(thiophen-2-yl)propoxy)-3-methylquinazolin-4(3H)-one]: the Ki was at least 3000 nM.
As for `CNCC[C@H](Oc1cccc2c1ccc(=O)n2C)c1cccs1` [Example 28, (S)-1-methyl-5-(3-(methylamino)-1-(thiophen-2-yl)propoxy)quinolin-2(1H)-one], the Ki lay within 500 to 3000 nM.
Take `CNCC[C@@H](Oc1cccc2c1ccc(=O)n2C)c1cccs1` [Example 29, (R)-1-methyl-5-(3-(methylamino)-1-(thiophen-2-yl)propoxy)quinolin-2(1H)-one]: the Ki lay in the range of 100 to 500 nM.
Then `CCNCC[C@@H](Oc1cccc2c(=O)n(C)ccc12)c1cccs1` [Example 31, (R)-5-(3-(ethylamino)-1-(thiophen-2-yl)propoxy)-2-methylisoquinolin-1(2H)-one], with under 100 nM; and `CCNCC[C@@H](Oc1cccc2ncn(C)c(=O)c12)c1cccs1` [Example 30, (R)-5-(3-(ethylamino)-1-(thiophen-2-yl)propoxy)-3-methylquinazolin-4(3H)-one], with under 100 nM; and `CNCCC(OCc1cccc2ccncc12)c1cccs1` (stereo not shown) [Example 20, 3-(Isoquinolin-8-ylmethoxy)-N-methyl-3-(thiophen-2-yl)propan-1-amine], with at least 3000 nM.
The same measure for `CNCC[C@@H](Oc1cc(F)cc2ncn(C)c(=O)c12)c1cccs1` [Example 45, (R)-7-fluoro-3-methyl-5-(3-(methylamino)-1-(thiophen-2-yl)propoxyl)quinazolin-4(3H)-one]: 100 to 500 nM.
For `CCNCC[C@@H](Oc1cc(C)cc2c(=O)n(C)cnc12)c1cccs1` [Example 44, (R)-8-(3-(ethylamino)-1-(thiophen-2-yl)propoxy)-3,6-dimethylquinazolin-4(3H)-one], the Ki was in the range of 100 to 500 nM.
